Patent publication US20110230430A1, “SAPONIN EXTRACT FROM SAPONARIA SPP. AND USES THEREOF” (NATIONAL RESEARCH COUNCIL OF CANADA, priority 2008, published 2011)

Columns and labels:
Format in all cases: cell-based, human
WiDr colon cancer cells = assay: Dual Sensor: MitoCasp Assay in WiDr colon cancer cells; details: 2.5 μM, 5.0 μM, 10 μM, and 15 μM, 24 hours
From the text: Techniques to assay enzymatic and signaling processes involved in apoptosis have been developed as standard protocols. One example of an early step in apoptosis, is the release of cytochrome C from mitochondria and the activation of caspase-3. Induction of the caspases (a series of cytosolic proteases) is one of the most consistently observed features of apoptosis. Caspases are a family of proteolytic enzymes that transmit the apoptotic signal using a proteolytic cascade. […] Caspases 3 and 7 are effector caspases, central to the caspase cascade pathways. In particular, caspase-3 plays a central role in the process. When caspases are activated, they cleave target proteins; one of the most important of these is poly-(ADP-ribose) polymerase (PARP), which is a protein located in the nucleus. […] Collapse of the mitochondrial membrane potential during apoptosis prevents the dye from accumulating in the mitochondria resulting in a decrease in fluorescent intensity that can be detected with flow cytometry. […] In this assay, caspase 3/7 activity is detected using a cell permeable carboxyfluorescein labeled caspase inhibitor, which binds covalently to active caspases 3 and 7. Cells that contain bound inhibitor are detected by an increase in fluorescence when samples are analyzed by flow cytometry. […]

[1] = test system: PC-3 (prostate cancer) cells; assay: Hoechst 33342 staining of PC-3 cells; details: 7 μM PC1448, 24 hours
From the text: Apoptosis can also be measured by Hoechst 33342 Staining. Cells undergoing apoptosis show several characteristic morphological changes. These changes include cell shrinkage and rounding, and the formation of cytoplasmic blebs on the cell surface. Nuclear material condenses along the edge of the nucleus followed by complete condensation and nuclear fragmentation (Hacker, G., 2000). Apoptotic cells eventually break up into membrane bound vesicles, which are known as apoptotic bodies. Hoechst 33342 is a fluorescent DNA-binding dye that allows visualization of chromatin distribution within a cell. Apoptotic nuclei have highly condensed chromatin, often in crescent shapes around the periphery of the nucleus.
A further indication of apoptotic activity, in addition to the assays described above, can be derived from observations of changes in cell architecture evident after induction of apoptosis. Hoechst 33342 is a fluorescent DNA-binding dye that allows visualization of chromatin distribution within a cell.
Cells undergoing apoptosis show several characteristic morphological changes. These changes include cell shrinkage and rounding, and the formation of cytoplasmic blebs on the cell surface. Nuclear material condenses along the edge of the nucleus followed by complete condensation and nuclear fragmentation (Hacker, G., 2000). […]

MDA-MB-231 cells = assay: APO LOGIX Carboxyfluorescein Caspase 9 Detection Kit in MDA-MB-231 cells
From the text: (§1) In a still further apoptotic assay, apoptosis can be measured by the APO LOGIX™ Carboxyfluorescein Caspase 9 Detection Kit. The APO LOGIX™ Carboxyfluorescein Caspase 9 Detection Kit uses a cell permeable carboxyfluorescein labeled caspase inhibitor, which binds covalently to active caspases 9. Caspase 9 is involved in initiating apoptosis through the mitochondrial pathway (Budihardjo I., et al. 1999). Cells that contain bound inhibitor are detected by an increase in fluorescence when samples are analyzed by flow cytometry.
The MDA-MB-231 cell line (ATCC #HTB-26) was derived from the pleural effusion of a patient with a breast adenocarcinoma (Cailleau et al., 1974). The cells were maintained in RPMI 1640 (Gibco) supplemented with 10% fetal bovine serum (Camera), 100 U/mL penicillin, 100 μg/mL streptomycin and 0.25 μg/mL amphotericin B. Cultures were maintained in medium at 37° C. with 5% CO2 and 100% relative humidity.
MDA-MB-231 cells were treated with PC1448 and assayed for apoptosis as previously described for PC-3 cells.

PC-3 cells = assay: APO LOGIX Carboxyfluorescein Caspase 9 Detection Kit in PC-3 cells
From the text: as §1
PC-3 cells (ATCC #CRL-1435) were derived from a prostate adenocarcinoma (Kaighn et al., 1979). They were maintained in RPMI 1640 medium (Gibco) supplemented with 10% fetal bovine serum (Cansera), 100 U/mL penicillin, and 100 μg/mL streptomycin and 0.25 μg/mL amphotericin B. Cultures were maintained in medium at 37° C. with 5% CO2 and 100% relative humidity.
PC-3 cells were seeded in tissue culture flasks with regular growth medium and maintained under normal conditions. After cells had adhered, the tissue culture medium was replaced with medium containing PC1448 dissolved in DMSO with the final concentration of DMSO not exceeding 0.05%. For each assay, a flask of untreated cells was grown in media containing the same amount of DMSO as in the PC1448 treated samples. Following incubation under normal growth conditions for the specified time, cells were washed once with cold phosphate-buffered saline (PBS) (137 mM NaCl, 2.7 mM KCl, 4.3 mM Na2HPO4.7H2O, 1.4 mM KH2PO4) and harvested as previously described. Assays were carried out according to instructions given in kits. All Flow Cytometry was performed using a Coulter Epics XL (Beckman).

## Segetoside H [PC1448]
WiDr colon cancer cells
  Induction of apoptosis (in words, FIG. 8): induces apoptosis
[1]
  Nuclear morphology after Hoechst 33342 staining (in words, FIG. 4): nuclear changes characteristic of apoptotic cells
MDA-MB-231 cells; 14 μM PC1448, 10 hr
  Caspase 9 positive cells: 23.2%
MDA-MB-231 cells; 14 μM PC1448, 15 hr
  Caspase 9 positive cells: 29.8%
MDA-MB-231 cells; 14 μM PC1448, 20 hr
  Caspase 9 positive cells: 30.5%
MDA-MB-231 cells; 14 μM PC1448, 40 hours
  Increase in cells with caspase 9 activity vs untreated (maximum effect): 2.5 fold
MDA-MB-231 cells; 14 μM PC1448, 40 hr
  Caspase 9 positive cells: 39.4%
PC-3 cells; 7 μM PC1448, 20 hr
  Caspase 9 positive cells: 47.7%
PC-3 cells; 10 μM PC1448, 20 hr
  Caspase 9 positive cells: 73.9%
PC-3 cells; 14 μM PC1448, 10 hr
  Caspase 9 positive cells: 37.3%
PC-3 cells; 14 μM PC1448, 15 hr
  Caspase 9 positive cells: 44.2%
PC-3 cells; 14 μM PC1448, 20 hr
  Caspase 9 positive cells: 48.0%
PC-3 cells; 14 μM PC1448, 20 hr (concentration range)
  Increase in cells with caspase 9 activity vs untreated: six fold
PC-3 cells; 14 μM PC1448, 20 hr (concentration series)
  Caspase 9 positive cells: 75.3%
PC-3 cells; 14 μM PC1448, 20 hr (time course)
  Increase in cells showing caspase 9 activity vs untreated: six fold
PC-3 cells; 14 μM PC1448, 40 hr
  Caspase 9 positive cells: 29.4%
PC-3 cells; 17 μM PC1448, 20 hr
  Caspase 9 positive cells: 65.6%
